Literature values as cited in publication PMC5641551, “Chemical Proteomics for Target Discovery of Head-to-Tail Cyclized Mini-Proteins” (Frontiers in Chemistry, 2017).

System: FK-binding protein 12
Conditions: no reference given; cited from earlier work

CO[C@H]1C[C@@H]2CC[C@@H](C)[C@@](O)(O2)C(=O)C(=O)N2CCCC[C@H]2C(=O)O[C@H]([C@H](C)C[C@@H]2CC[C@@H](O)[C@H](OC)C2)CC(=O)[C@H](C)/C=C(\C)[C@@H](O)[C@@H](OC)C(=O)[C@H](C)C[C@H](C)/C=C/C=C/C=C/1C [rapamycin]
binding to FK-binding protein 12: binds to the protein FK-binding protein 12
